Measurements published in publication PMC2838930 (Pediatric blood & cancer, 2010).

How the values were obtained:
[1] = Valspodar blood concentrations by radioimmunoassay; assay type: in vivo, pediatric patients; conditions: at some point during the infusion
[2] = not given; remark: listed apart in the source
[3] = adults with leukemia, with mitoxantrone, etoposide, cytarabine; cited from earlier work
[4] = during valspodar infusion, resolved after completion, all dose levels

Row | SMILES | CL0 (baseline clearance) (in vivo) [L/h] | Q (inter-compartmental clearance) (in vivo) [L/h] | decrease of clearance when combined with valspodar (day 4 with valspodar versus day 1 pre-valspodar) [%] | V1 (volume of the central compartment) (in vivo) [L] | V2 (volume in the peripheral compartment) (in vivo) [L] | valspodar concentration achieved in all patients [1] | patients with cerebellar toxicity (ataxia or dizziness) ([2]; all dose levels, 21 evaluable, one grade 3, two grade 2, two grade 1) | patients with transient hyperbilirubinemia ([2]; all dose levels, evaluable for toxicity) | transient hyperbilirubinemia, median maximum [2, 4] [mg/dL] | transient hyperbilirubinemia, range of maximum [2, 4] [mg/dL] | patients with valspodar infusion-related transaminase elevations ([2]; one grade 1, two grade 2, one grade 3, self-resolved) | maximum tolerated dose (MTD) in adults [3] [mg/kg/day]
1 | O=C1c2c(O)ccc(O)c2C(=O)c2c(NCCNCCO)ccc(NCCNCCO)c21 [mitoxantrone] | 16.4 | 8.13 | – | – | – | – | – | – | – | – | – | –
2 | COc1cc([C@@H]2c3cc4c(cc3[C@@H](O[C@@H]3O[C@@H]5CO[C@@H](C)O[C@H]5[C@H](O)[C@H]3O)[C@H]3COC(=O)[C@H]23)OCO4)cc(OC)c1O [etoposide] | 1.52 | 2.38 | 60 | 3.58 | 3.82 | – | – | – | – | – | – | –
3 | C/C=C/C[C@@H](C)C(=O)[C@H]1C(=O)N[C@@H](C(C)C)C(=O)N(C)CC(=O)N(C)[C@@H](CC(C)C)C(=O)N[C@@H](C(C)C)C(=O)N(C)[C@@H](CC(C)C)C(=O)N[C@@H](C)C(=O)N[C@H](C)C(=O)N(C)[C@@H](CC(C)C)C(=O)N(C)[C@@H](CC(C)C)C(=O)N(C)[C@@H](C(C)C)C(=O)N1C [valspodar, Valspodar] | – | – | – | – | – | 1,000 ng/mL | five | 16 of 21 | 2 | 0.8 to 6.6 | Four | 10
